The results in this text go back to patent EP4793271A1, “NEUROPROTECTIVE AGENT” (National Center of Neurology and Psychiatry, priority 2023, dated 2025).

The subject of test [1] is primary cultured cells of mouse fetus-derived dorsal root ganglia (DRGs). Nature of the test: Suppression of axonal degeneration after axotomy in DRG explant culture. Type of test: cell-based. To be noted: Mus musculus; minimum concentration at which axonal degeneration was suppressed (DI 0.3 or less); 24 hours after axotomy; read-out: Evaluation on protection against degeneration. The procedure:
The compound of the present invention was studied for its protective effect against axonal injury using primary cultured cells of mouse fetus-derived dorsal root ganglia (DRGs).
DRGs were collected from a fetus derived from an ICR mouse (13.5 days of pregnancy). DRGs were cultured using a plate coated by incubation with 0.1 mg/mL poly-L-lysine at 4°C for 24 hours or longer, washing with PBS, and then incubation with 2.5 µg/mL Cultrex Mouse Laminin I at 37°C for 4 to 6 hours.
One of DRGs collected was plated to each well of the coated 24-well plate. The DRG was cultured in a nicotinamide-free medium for neuron (supplemented with 10% FBS, 1 mM glutamine, 50 ng/mL NGF2.5S, and penicillin-streptomycin) for 24 hours at maximum from the start of culture and then cultured in a nicotinamide-free medium for neuron (supplemented with 2% MACS NeuroBrew-21, 50 ng/mL NGF2.5S, 1% Glutamax, 20 µM uridine, 20 µM 5-fluoro-2'-deoxyuridine, and penicillin-streptomycin) for 7 to 8 days.
The nicotinamide-free medium for neuron was prepared so as to have the same constituents as those of the composition published in a previously reported paper (Brewer et al., J. Neuroscience Research 35: 567-576) except for nicotinamide with reference to this composition.
The test compound is dissolved in DMSO and added to cells such that the final concentration of DMSO is 0.1% (1000-fold dilution). 10 mM, 1 mM, 100 µM, 10 µM, 1 µM, and 100 nM samples of the test compound are prepared and added at a 1000-fold dilution to cells.
Axotomy was carried out by scooping out a cell body portion of the cultured DRG with a chip for a micropipette. The test compound was added at the following concentrations (final concentration: 10 µM, 1 µM, 100 nM, 10 nM, 1 nM, and 100 pM) within 30 minutes after axotomy. The compound was evaluated for its protective effect against axonal degeneration by imaging (Leica DMIL microscope, 20× objective lens) the state of neurites 24 hours after axotomy and evaluating the degree of degeneration. The degree of degeneration was quantified using a program uniquely developed using the R language. A degeneration index (DI) was used as an indicator for the degree of degeneration, and the ratio of the area of a fragmented axon to the total area of axons was calculated as defined in the equation of Expression 2. Suppressed axonal degeneration was evaluated when the value of DI was 0.3 or less. The minimum concentration at which axonal degeneration was suppressed was determined for each compound. Degeneratioin index (DI) = (Degenerated axons)/(All axons) [formula]
The axonal protective activity was evaluated as A ≤ 0.01 µM, 0.01 µM < B ≤ 0.1 µM, and 0.1 µM < C ≤ 1 µM depending on the minimum concentration at which axonal degeneration was suppressed.

Test [2] has as its target T1, nicotinamide phosphoribosyl transferase (NAMPT) (Homo sapiens, UniProt P43490).
T1 construct: purchased Medical & Biological Laboratories Co., Ltd. (MBL)
Nature of the test: NAMPT activity measurement (NMN fluorescence detection). To be noted: NAMPT recombinant protein, 10 µM Nam; for IC50: read-out: Evaluation on NAMPT inhibitory. The format is biochemical. How it is done: The compound of the present invention was evaluated for the ability to influence the activity of nicotinamide phosphoribosyl transferase (NAMPT) which is an enzyme that metabolizes nicotinamide (Nam), not the target SARM1.
The enzymatic reaction of NAMPT was carried out by adding NAMPT recombinant protein (manufactured by Medical & Biological Laboratories Co., Ltd. (MBL)) to a reaction solution containing the substrate Nam, phosphoribosylpyrophosphate (PRPP), ATP, and the like (composition: […] (pH = 7.4), 2 µM ATP, 0.5 µM PRPP, 0.02% BSA, 2 µM DTT, 1.2 µM MgCl2, and 10 µM Nam). The amount of the reaction product NMN was detected by detecting the fluorescent signal of a fluorescent substance obtained through the reaction of 2-acetylbenzofuran with NMN using SpectraMax M2 (Molecular Devices) (excitation: 421 nm, fluorescence: 480 nm) (Moriya et al, Chemical Communications 2013, 49 11500). The test compound was added at final concentrations of 10 µM, 3 µM, 1 µM, 300 nM, 100 nM, 30 nM, 10 nM, and 3 nM to the NMN synthesis reaction system described above. The NMN-derived fluorescent signal was normalized against a control group and plotted as the function of the test compound concentrations, and the compound was evaluated for its NAMPT inhibitory effect by calculating IC50.
The IC50 value was evaluated as ∘ for ≥1 µM and as Δ for ≥0.1 µM.

For another test, the target named is T2, hSARM1 (Homo sapiens, UniProt Q6SZW1).
T2 sequence (Q6SZW1 28-724): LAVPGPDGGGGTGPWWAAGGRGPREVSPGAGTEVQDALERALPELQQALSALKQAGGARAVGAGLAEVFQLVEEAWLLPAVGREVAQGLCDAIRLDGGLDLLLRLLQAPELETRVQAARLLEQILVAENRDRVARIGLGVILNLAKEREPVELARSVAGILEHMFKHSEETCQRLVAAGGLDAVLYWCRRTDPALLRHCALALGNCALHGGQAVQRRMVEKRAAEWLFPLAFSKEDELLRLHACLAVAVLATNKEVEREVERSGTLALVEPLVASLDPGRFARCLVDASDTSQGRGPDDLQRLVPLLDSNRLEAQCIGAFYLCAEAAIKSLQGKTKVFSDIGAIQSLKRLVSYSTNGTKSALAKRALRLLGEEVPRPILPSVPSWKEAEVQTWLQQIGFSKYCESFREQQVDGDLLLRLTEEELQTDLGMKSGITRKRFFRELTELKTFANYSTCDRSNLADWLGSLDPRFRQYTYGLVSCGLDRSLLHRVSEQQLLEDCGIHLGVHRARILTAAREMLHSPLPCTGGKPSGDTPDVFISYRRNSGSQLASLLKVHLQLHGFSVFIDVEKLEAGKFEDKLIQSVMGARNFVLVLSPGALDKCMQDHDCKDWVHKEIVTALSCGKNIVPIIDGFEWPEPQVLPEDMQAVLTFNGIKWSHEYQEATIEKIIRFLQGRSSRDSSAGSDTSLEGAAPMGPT
Nature of the test: Human SARM1 activity measurement in HEK293 cells transiently transfected with ΔN-hSARM1 (PC6 fluorescent probe). Type of test: cell-based. Particulars: inhibition rate; compound 30 µM; PC6 50 µM; HEK293 cells expressing ΔN-hSARM1; approximately 48 hours from transfection; read-out: Evaluation on hSARM1 inhibitory. Also noted: expressed in transfected cells; host or cells: HEK293, pcDNA3 expression vector. The procedure: HEK293 cells cultured in a prepared medium of nicotinamide-free DMEM (Dulbecco's modified Eagle medium) supplemented with 10% FBS (BioSera), a 1% penicillin-streptomycin solution (FUJIFILM Wako Pure Chemical Corp.), 5 μM nicotinamide were inoculated at approximately 50,000 cells/well to a 96-well microplate, and the cells were cultured at 37°C under 5% CO2, transiently transfected on the next day with a pcDNA3 expression vector containing a DNA sequence (SEQ ID NO: 1) deficient in a mitochondrial targeting sequence encoded by an N-terminal 78-base sequence in cDNA encoding human sterile α- and armadillo-motif-containing protein (hSARM1) using PEI MAX(R) reagent (PolySciences Inc.), and forced to express ΔN-hSARM1 (SEQ ID NO: 2). Approximately 8 hours later, PC6, which reacts as a substrate of SARM1-specific base exchange reaction and functions as a fluorescent probe, was added thereto at a final concentration of 50 μM, and intracellular hSARM1 activity was measured (Li et al, eLife 2021 10: e67381). A compound for inhibitory activity evaluation was added at a final concentration of 30 μM at the same time with PC6, while dimethyl sulfoxide (Nacalai Tesque Inc.) was added to samples of a control group at the same time with PC6. The cells were incubated at 37°C under 5% CO2 for approximately 48 hours from transfection, followed by fluorescent signal measurement using SpectraMax M2 (Molecular Devices) (excitation: 405 nm, fluorescence: 525 nm, fluorescence cutoff: 515 nm). Results of this screening are reported as an inhibition rate (%) relative to a negative control defined as follows by using fluorescence intensity measured from a control group without transfection with ΔN-hSARM1 as a background whereas using fluorescence intensity measured from a control group transfected with ΔN-hSARM1 as the negative control. Inhibitory rate (%) = 100-(([…]-Background))/((Signalofthenegativecontrol-Background)) × 100 [formula] The nicotinamide-free medium was prepared so as to have the same composition as that of DMEM having known composition which is generally used in the art except for nicotinamide. […]

T1 sequence (P43490 whole entry, species assumed): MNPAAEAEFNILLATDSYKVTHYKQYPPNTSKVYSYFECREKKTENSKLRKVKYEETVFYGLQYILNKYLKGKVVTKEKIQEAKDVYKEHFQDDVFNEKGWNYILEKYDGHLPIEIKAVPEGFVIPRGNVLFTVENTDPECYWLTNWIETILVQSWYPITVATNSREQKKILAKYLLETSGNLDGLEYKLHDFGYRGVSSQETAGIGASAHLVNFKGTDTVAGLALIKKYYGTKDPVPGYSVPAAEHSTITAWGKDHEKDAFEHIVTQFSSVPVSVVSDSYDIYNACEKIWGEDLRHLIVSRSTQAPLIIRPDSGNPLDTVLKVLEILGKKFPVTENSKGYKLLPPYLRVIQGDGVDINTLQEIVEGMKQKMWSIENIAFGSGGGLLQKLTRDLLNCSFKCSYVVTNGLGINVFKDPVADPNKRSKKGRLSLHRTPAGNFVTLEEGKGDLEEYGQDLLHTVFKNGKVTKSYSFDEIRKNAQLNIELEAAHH

Turning to `O=C(NCc1ccc(NC(=O)c2cccc3ccccc23)nc1)c1cccnc1` [Compound 121], in test [1], the minimal effective concentration was in the range of 0.01 to 0.1 µM. Moreover, the IC50 in test [2] was no less than 100 nM.

Consider `NCc1cccc(CNC(=O)c2cccnc2)n1` [Compound 148], for which the minimal effective concentration in test [1] was in the range of 0.1 to 1 µM. In addition, in test [2], the “Evaluation on NAMPT inhibitory” value is “○”.

Turning to `CN(C)c1ccc(/C=C/C(=O)Nc2ccc(CNC(=O)c3cccnc3)cn2)cc1` [Compound 181], the minimal effective concentration in test [1] is no more than 0.01 µM. Further, the IC50 in test [2] is no less than 100 nM.

Consider `O=C(NCCCCCC1CCN(CCO)CC1)c1cccnc1` [compound 2], for which, in test [1], the minimal effective concentration is no more than 0.01 µM. For the same compound, the IC50 in test [2] is no less than 100 nM.

For the compound `O=C(NCCCCCCCCOCCOc1ccc([N+](=O)[O-])c2nonc12)c1cccnc1` [compound 5], the minimal effective concentration in test [1] is no more than 0.01 µM. Also, the IC50 in test [2] was no less than 100 nM.

For `COC(=O)C(CCCCNC(=O)c1cccnc1)NC(=O)c1cccnc1` (stereo not drawn) [compound 44], the “Evaluation on NAMPT inhibitory” value in test [2] is “○”.

With `O=C(NCCCCC(NC(=O)c1cccnc1)C(=O)O)c1cccnc1` (stereo not drawn) [compound 45], in test [2], the “Evaluation on NAMPT inhibitory” value is on record as “○”.

In the case of `NC(=O)C(CCCCNC(=O)c1cccnc1)NC(=O)c1cccnc1` (stereo not drawn) [compound 46], the “Evaluation on NAMPT inhibitory” value in test [2] is “○”.

For `CCNC(=O)C(CCCCNC(=O)c1cccnc1)NC(=O)c1cccnc1` (stereo not drawn) [compound 47], in test [2], the “Evaluation on NAMPT inhibitory” value was “○”.

For `COC(=O)C(CCCNC(=O)c1cccnc1)NC(=O)c1cccnc1` (stereo not drawn) [compound 48], the minimal effective concentration in test [1] is 0.1 to 1 µM. Also, the “Evaluation on NAMPT inhibitory” value in test [2] is “○”.

Regarding `O=C(NCCCC(NC(=O)c1cccnc1)C(=O)O)c1cccnc1` (stereo not drawn) [compound 49], the “Evaluation on NAMPT inhibitory” value in test [2] is reported as “○”.

In the case of `NC(=O)C(CCCNC(=O)c1cccnc1)NC(=O)c1cccnc1` (stereo not drawn) [compound 50], in test [2], the “Evaluation on NAMPT inhibitory” value is listed as “○”.

On to `CCNC(=O)C(CCCNC(=O)c1cccnc1)NC(=O)c1cccnc1` (stereo not drawn) [compound 51], for which the “Evaluation on NAMPT inhibitory” value in test [2] is recorded as “○”.

As for `O=C(NCCOCCOc1ccc(CNC(=O)c2cccnc2)cc1)c1cccnc1` [compound 54], the inhibition at 30 µM on hSARM1 was greater than 75%. In test [1], the minimal effective concentration is no more than 0.01 µM.

For `O=C(/C=C/c1cccnc1)NCCOCCOc1ccc(CNC(=O)c2cccnc2)cc1` [compound 55], at hSARM1, the inhibition at 30 µM was greater than 75%. Moreover, the minimal effective concentration in test [1] is no more than 0.01 µM.

For the compound `C/C(=C\C(=O)NCCOCCOc1ccc(CNC(=O)c2cccnc2)cc1)c1cccnc1` [compound 56], the inhibition at 30 µM on hSARM1 is greater than 50%. Further, the minimal effective concentration in test [1] was no more than 0.01 µM.

Turning to `O=C(/C=C/c1cccnc1)Nc1ccc(NC(=O)/C=C/c2cccnc2)cc1` [compound 58], the inhibition at 30 µM at hSARM1 was greater than 75%. In addition, in test [1], the minimal effective concentration is no more than 0.01 µM.

As to `O=C(/C=C/c1cccnc1)NCc1ccc(NC(=O)/C=C/c2cccnc2)cc1` [compound 62], the inhibition at 30 µM on hSARM1 is greater than 75%. In addition, in test [1], the minimal effective concentration was no more than 0.01 µM.

For the compound `O=C(/C=C/c1ccccc1)NCc1ccc(CNC(=O)c2cccnc2)cc1` [compound 66], the inhibition at 30 µM on hSARM1 was greater than 75%. In addition, the minimal effective concentration in test [1] is no more than 0.01 µM.

In the case of `C#CCCOc1ccc(C(=O)NCCCCCCNC(=O)c2cccnc2)cc1` [compound 68], the inhibition at 30 µM at hSARM1 is greater than 75%. Also, the minimal effective concentration in test [1] was no more than 0.01 µM.

Take `O=C(/C=C/c1cccnc1)NCCCOCCOCCCNC(=O)/C=C/c1cccnc1` [compound 69]: the inhibition at 30 µM at hSARM1 was greater than 75%. Moreover, the minimal effective concentration in test [1] was no more than 0.01 µM.

As to `O=C(/C=C/c1cccnc1)NCc1ccc(NC(=O)c2ccccc2)nc1` [compound 77], at hSARM1, the inhibition at 30 µM was greater than 75%. The minimal effective concentration in test [1] was no more than 0.01 µM.

Take `O=C(Cc1ccc(C(F)(F)F)cc1)Nc1ccc(CNC(=O)c2cccnc2)cn1` [compound 89]: the inhibition at 30 µM at hSARM1 is greater than 75%. For the same compound, the minimal effective concentration in test [1] is no more than 0.01 µM.

Regarding `O=C(NCc1ccc(NC(=O)C2COC2)cc1)c1cccnc1` [compound 93], the inhibition at 30 µM on hSARM1 was greater than 50%. The minimal effective concentration in test [1] was in the range of 0.01 to 0.1 µM.

For `CC(C)(C)OC(=O)N1CC(C(=O)Nc2ccc(CNC(=O)c3cccnc3)cn2)C1` [compound 94], the inhibition at 30 µM on hSARM1 is greater than 75%. For the same compound, the minimal effective concentration in test [1] was no more than 0.01 µM.

With `O=C(Nc1ccc(CCc2ccc(NC(=O)c3cccnc3)cc2)cc1)c1cccnc1` [compound 101], at hSARM1, the inhibition at 30 µM is greater than 75%. In addition, the minimal effective concentration in test [1] is no more than 0.01 µM.
